How the values were obtained:
[1] = test system: KT-10 tumors; conditions: KT-10, 0.1 mg/kg TLZ daily dosing; reference (26); cited from earlier work
[2] = test system: DLD-1 BRCA2^wt/wt; assay: Efficacy in murine DLD-1 BRCA2^wt/wt xenografts (Example 10); conditions: QD oral
[3] = test system: BRCA1-deficient MX-1 tumors; format: in vivo
[4] = test system: MX-1 human triple-negative breast carcinoma cell line; assay: Efficacy of PEG-talazoparib conjugates in murine MX-1 xenografts (Example 9); format: in vivo, mice; conditions: MX-1 tumors
Description: The MX-1 human triple-negative breast carcinoma cell line was obtained from Charles River Labs (Frederick, Md).
Tumor xenografts were established by subcutaneous injection with MX-1 tumor cells (2×10^6 cells in 100 μl of serum free medium mixed 1:1 with Matrigel) into the right flank of female NCr nude mice. When tumor xenografts reached 1000-1500 mm^3 in donor mice, they were resected, divided into even-size fragments (approximately 2.5×2.5 mm), embedded in Matrigel and re-implanted via subcutaneous trocar implantation in receiver mice.
Solutions of talazoparib (50 μM) were prepared as by adding a solution of talazoparib in DMSO (55 mM, 454 μL) to the oral dosing buffer consisting of 10% dimethylacetamide, 6% solutol, and 84% PBS. Talazaparib content was determined by ε310nm=9872 M^−1cm^−1 in 10% dimethylacetamide, 6% solutol, and 84% PBS Solutions were delivered p.o. at 8.5-19 mL/kg to deliver 0.4 to 0.9 μmol/kg talazoparib. Solutions of PEG-talazoparib (Example 1, R^1=MeSO2, R^7=MeO(CH2)2) containing up to 8 mM talazoparib (2 mM PEG˜[talazoparib]4) were prepared in isotonic acetate (pH 5), sterile filtered through a 0.2 μM syringe filter, and TLZ content was determined by ε310nm=9872 M^−1cm^−1 in 10% dimethylacetamide, 6% solutol, and 84% PBS. Doses were delivered IP at ˜15 mL/kg mL/kg to deliver 15-120 μmol drug/kg.
Mice bearing MX-1 tumors were dosed when tumors reached ˜100-300 mm^3 in size. Dosing solutions were administered as indicated above. Tumor volumes (caliper measurement: 0.5×(length×width)) and body weights were measured twice weekly. […] Mice bearing large tumors were dosed when tumors reached 1000-3000 mm^3.
Progressive disease (PD) was classified as PD1 or PD2 based on the tumor growth delay (TGD) values calculated as the number of days to event. For each mouse, TGD was calculated by dividing the time to event by the median time to event in the control group. […] Median times to event were estimated based on the Kaplan-Meier event-free survival distribution.

[5] = test system: DLD-1 BRCA2^−/−; conditions: daily TLZ×21 days

Cn1ncnc1[C@H]1c2n[nH]c(=O)c3cc(F)cc(c23)N[C@@H]1c1ccc(F)cc1 [TLZ, talazoparib]
response of KT-10 to daily TLZ [1]: maintained CRs over 12 wks | median EFS of treated animals vs controls [2]: no increase | tumor response [2]: resistant | duration of growth suppression ([3]; MX-1, daily oral 0.4 μmol/kg (0.15 mg/kg)): ~3 wks | median EFS ([3]; MX-1, daily oral 0.4 μmol/kg, event = doubling of initial tumor volume): 35 days | MCR (number of mice, Houghton analysis) ([4]; dose 0.4 μmol/kg): 1 | PD2 (number of mice, Houghton analysis) ([4]; dose 0.4 μmol/kg): 4 | CR (number of mice, Houghton analysis) ([4]; dose 0.7 μmol/kg): 2 | MCR (number of mice, Houghton analysis) ([4]; dose 0.7 μmol/kg): 1 | PR (number of mice, Houghton analysis) ([4]; dose 0.7 μmol/kg): 2 | increase in median event free survival [5]: 11 fold

Reference: US12472261B2, “Conjugated inhibitors of DNA damage response” (ProLynx LLC, priority 2019, dated 2025)
